One test relates to Lung cancer H460. Kind of test: in vitro anti-tumor activity assay (MTT method). The format is cell-based, human. The following applies: 48 h of culture. As for the experimental part:
(§1) Five human tumor cell lines were selected and cultured in RPMI-1640 (Gibco) or DMEM (Gibco) or GMEM/F12 medium (Gibco) containing 10% inactivated fetal bovine serum, 100 U/ml penicillin and […] streptomycin in an incubator containing 5% CO2 at 37°C. Logarithmically growing cells were seeded in 96-well plates (100 µl per well, 2 x 10^4 cells) using the MTT method, while setting blank control wells. After overnight incubation in the incubator, 100 µl of drug (final concentration 25 µM diluted to 0.39 µM, a total of 7 groups of drug concentrations) was added, an equal volume of culture medium was added in the blank control wells, and 3 duplicate wells were set for each drug concentration. After 48 h of culture, the supernatant was discarded. After washing twice with PBS, 100 µl of MTT (5mg/ml) was added to each well, and the culture was continued for 2 h. Absorbance (A492nm) was measured by a microplate reader to calculate the inhibition rate of the drug on tumor cells.
(§2) IC50 values of compounds on tumor cells were calculated using GraphPad software. […] Table 2. In vitro anti-tumor activity IC50 (µM) of example compounds
A general note: Tetrazolium assays rely on reduction of a dye to a coloured formazan, in cell work by metabolically active cells.

For the next test, the system named is Liver cancer HepG2. Kind of test: in vitro anti-tumor activity assay (MTT method). The format is cell-based, human. The conditions noted are these: Liver cancer HepG2, culture medium High-sugar DMEM, 48 h of culture. As for the experimental part: as §1, §2
In another test the test system is Prostate cancer PC-3. Kind of test: in vitro anti-tumor activity assay (MTT method). It counts as cell-based, human. The conditions noted are these: Prostate cancer PC-3, culture medium F12, 48 h of culture. As for the experimental part: as §1, §2
Another test deals with Lung cancer A549. Kind of test: in vitro anti-tumor activity assay (MTT method). The format is cell-based, human. The following applies: Lung cancer A549, culture medium F12, 48 h of culture. As to the method: as §1, §2
The subject of another test is Prostate cancer LNcap. Kind of test: in vitro anti-tumor activity assay (MTT method). It counts as cell-based, human. The following applies: culture medium RPMI-1640, 48 h of culture. As for the experimental part: as §1, §2
The next test deals with A549 lung cancer cells. Kind of test: in vivo anti-tumor efficacy assay, subcutaneous tumor model. The following applies: BALB/c nude mice, intraperitoneally 20 mg/kg once per two days, 10 times; for Tumor inhibition rate: calculated from tumor weight; for Mean tumor weight (g) (mean ± SD): weighed on 2nd day after last administration. As to the method: An in vivo efficacy evaluation model was established in BALB/c nude mice. Each mouse was inoculated subcutaneously with 0.15 mL of tumor cell suspension (A549 lung cancer cells, 2 x 10^7 cells/ml) in the axillary fossa of the right forelimb. When the inoculated cells grew to 300 mm^3, the administration was started. On the 22nd day after inoculation, the mice were intraperitoneally administered (20 mg/kg) once per two days for a total of 10 times. On the 2nd day after the last administration, all the tumor-bearing mice were sacrificed, the tumors were weighed and the tumor inhibition rate was calculated. […] Table 3 Results of in vivo anti-tumor activity of the example compounds

[1] abbreviates: Homo sapiens, NCI-H460, Lung cancer H460, culture medium High-sugar DMEM.

pIC50: −log10 of the molar value.

Consider seven molecules from patent EP4640672A1, “ETHYLENEDIAMINE DERIVATIVE, AND PREPARATION METHOD THEREFOR AND USE THEREOF” (Jiangsu Protelight Pharmaceutical & Biotechnology Co., Ltd., priority 2022, dated 2024).

For the molecule `N.N.[Cl][Pt][Cl]` [Cisplati num, Cisplatinum], the pIC50 (commonly the negative decadic logarithm of the IC50, by convention in mol/L) with Lung cancer H460 (Lung cancer H460, culture medium High-sugar DMEM) is 4.69; in the test with Liver cancer HepG2 it was 4.51; in the test on Prostate cancer PC-3 it was 4.16; in the test on Lung cancer A549, 4.47; in the test on Prostate cancer LNcap, 4.94.
For the molecule `CC1(C)CC(NC[C@H](Cc2ccc(-c3ccccc3)cc2)NC(=O)C=Cc2ccccc2)CC(C)(C)N1` (stereo in doubt) [Cpd014, (S)-N-(1-([1,1'-biphenyl]-4-yl)-3-((2,2,6,6-tetramethylpiperidin-4-yl)amino)propan-2-yl)cinnamamide], the pIC50 in the test with Lung cancer H460 (setting [1]) is 5.80; in the test on Liver cancer HepG2 (Homo sapiens), 5.96; in the test with Prostate cancer PC-3 (Homo sapiens) it was 5.48; in the test on Lung cancer A549 (Homo sapiens) it was 5.63; in the test with Prostate cancer LNcap (Homo sapiens), 5.99. Further, the Tumor inhibition rate in the test on A549 lung cancer cells is 32.73%. In the test on A549 lung cancer cells, the “Mean tumor weight (g) (mean ± SD)” value was found to be 0.448 ± 0.128 g.
In the case of `COc1ccc2cc(C(C)C(=O)NC(Cc3ccc(-c4ccccc4)cc3)C(=O)NC3CC(C)(C)NC(C)(C)C3)ccc2c1` (stereo not drawn) [PL-AC-202], the pIC50 in the test with Lung cancer H460 (setting [1]) was 5.78; in the test with Liver cancer HepG2 (Homo sapiens) it was 6.37; with Prostate cancer PC-3 (Homo sapiens), 5.78; with Lung cancer A549 (Homo sapiens) it was 5.52; in the test on Prostate cancer LNcap (Homo sapiens), 5.49. Also, the Tumor inhibition rate with A549 lung cancer cells is 19.37%. Further, the “Mean tumor weight (g) (mean ± SD)” value in the test with A549 lung cancer cells stood at 0.537 ± 0.198 g.
Turning to `CC(=O)O[C@@]12CO[C@@H]1C[C@H](O)[C@@]1(C)C(=O)[C@H](O)C3=C(C)[C@@H](OC(=O)[C@H](O)[C@@H](NC(=O)OC(C)(C)C)c4ccccc4)C[C@@](O)([C@@H](OC(=O)c4ccccc4)[C@H]21)C3(C)C` [Docetaxol, docetaxel], in the test on A549 lung cancer cells, the Tumor inhibition rate is 5.29% and the “Mean tumor weight (g) (mean ± SD)” value came out at 0.631 ± 0.231 g.
On to `CCC(C(=O)N[C@H](CNC1CC(C)(C)NC(C)(C)C1)Cc1ccc(-c2ccccc2)cc1)C1CCCCC1` (stereo partly drawn) [Cpd009, N-((S)-1-([1,1'-biphenyl]-4-yl)-3-((2,2,6,6-tetramethylpiperidin-4-yl)amino)propan-2-yl)-2-cyclohexylbutanamide], for which the pIC50 in the test on Lung cancer H460 (setting [1]) was 5.65; in the test on Liver cancer HepG2 (Homo sapiens) it was 5.83; with Prostate cancer PC-3 (Homo sapiens) it was 5.43; with Lung cancer A549 (Homo sapiens), 5.71; in the test on Prostate cancer LNcap (Homo sapiens), 5.82.
Consider `CC1(C)CC(NC[C@H](Cc2ccc(OCc3c(Cl)cccc3Cl)cc2)NC(=O)C/C=C/c2ccccc2)CC(C)(C)N1` [Cpd001, (S,E)-N-(1-(4-((2,6-dichlor obenzyl)oxy)phenyl)-3-((2,2,6,6-tetramethylpiperidin-4-yl)amino)propan-2-yl)-4-phenylbut-3-enamide], for which the pIC50 in the test with Lung cancer H460 (setting [1]) is 6.00; in the test with Liver cancer HepG2 (Homo sapiens), 6.01; with Prostate cancer PC-3 (Homo sapiens), 5.52; with Lung cancer A549 (Homo sapiens) it was 5.57; in the test on Prostate cancer LNcap (Homo sapiens) it was 5.42.
As to `CC1(C)CC(NC(=O)C(Cc2ccc(-c3ccccc3)cc2)NC(=O)c2cc3ccccc3n2Cc2ccccc2)CC(C)(C)N1` (stereo not drawn) [PL-AC-15], the pIC50 was 5.63 with Lung cancer H460 (setting [1]); 5.72 in the test with Liver cancer HepG2 (Homo sapiens); 5.37 in the test on Prostate cancer PC-3 (Homo sapiens); 5.36 in the test on Lung cancer A549 (Homo sapiens); 5.72 with Prostate cancer LNcap (Homo sapiens).
